Target: T1, HDM2 (Homo sapiens, UniProt Q00987)
T1 construct: Thioredoxin (N); made in house; host or cells: E. coli strain BL21(DE3)Rosetta
Experiment: HDM2 FRET assay (inhibition of binding of FITC labeled p53-pocket peptide to HDM2)
Conditions: Table 6; read-out: FRET IC50
Procedure, shortened: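 Compounds were tested in 10-point serial dilution against 0.5 nM recombinant HDM2 binding 3 nM fluorescein-labeled p53-pocket peptide. Detection used 0.25 nM terbium cryptate anti-6xHis antibody in PBS buffer containing 0.01% BSA and 0.01% Tween-20.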

T1 sequence (Q00987 17-125): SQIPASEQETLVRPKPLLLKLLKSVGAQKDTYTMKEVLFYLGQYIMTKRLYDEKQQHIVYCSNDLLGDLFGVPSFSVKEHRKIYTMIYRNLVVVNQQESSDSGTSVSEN

Going from `Cc1cccc(-c2nc3nc(C(=O)O)nc(NC4CCC(CNC(=O)OC(C)(C)C)CC4)c3n2Cc2ccc(C(F)(F)F)cc2)c1` (stereo not drawn) [Example 6.35, 6-[(4-{[(tert-butoxycarbonyl)amino]methyl}cyclohexyl)amino]-8-(3-methylphenyl)-7-[4-(trifluoromethyl)benzyl]-7H-purine-2-carboxylic acid] to `Cc1cccc(-c2nc3nc(C(=O)O)nc(NC4CCC(CO)CC4)c3n2Cc2ccc(C(F)(F)F)cc2)c1` (stereo not drawn) [Example 6.40, 6-{[4-(hydroxymethyl)cyclohexyl]amino}-8-(3-methylphenyl)-7-[4-(trifluoromethyl)benzyl]-7H-purine-2-carboxylic acid], the IC50 falls from 2340 nM to 925 nM (2.5-fold).

Going from `Cc1cccc(-c2nc3nc(C(=O)O)nc(NCC4CC4)c3n2Cc2ccc(C(F)(F)F)cc2)c1` [Example 6.36, 6-[(cyclopropylmethyl)amino]-8-(3-methylphenyl)-7-[4-(trifluoromethyl)benzyl]-7H-purine-2-carboxylic acid] to `Cc1cccc(-c2nc3nc(C(=O)O)nc(NCC4CCCCC4)c3n2Cc2ccc(C(F)(F)F)cc2)c1` [Example 6.50, 6-[(cyclohexylmethyl)amino]-8-(3-methylphenyl)-7-[4-(trifluoromethyl)benzyl]-7H-purine-2-carboxylic acid], the IC50 rises from 670 nM to 1370 nM (2-fold).

Going from `Cc1cccc(-c2nc3nc(C(=O)O)nc(NC(C)C4CC4C)c3n2Cc2ccc(C(F)(F)F)cc2)c1` (stereo not drawn) [Example 6.37, 6-{[1-(2-methylcyclopropyl)ethyl]amino}-8-(3-methylphenyl)-7-[4-(trifluoromethyl)benzyl]-7H-purine-2-carboxylic acid] to `CC[C@@H](C)Nc1nc(C(=O)O)nc2nc(-c3cccc(C)c3)n(Cc3ccc(C(F)(F)F)cc3)c12` [Example 6.60, 8-(3-methylphenyl)-6-{[(1R)-1-methylpropyl]amino}-7-[4-(trifluoromethyl)benzyl]-7H-purine-2-carboxylic acid], the IC50 rises from 360 nM to 583 nM (1.6-fold). The first is the more potent here.

First: Cc1cccc(-c2nc3nc(C(=O)O)nc(NC(C)C4CC4C)c3n2Cc2ccc(C(F)(F)F)cc2)c1 (stereo not drawn) [Example 6.38, 6-{[1-(2-methylcyclopropyl)ethyl]amino}-8-(3-methylphenyl)-7-[4-(trifluoromethyl)benzyl]-7H-purine-2-carboxylic acid]
Second: Cc1cccc(-c2nc3nc(C(=O)O)nc(NC(C)C(C)(C)O)c3n2Cc2ccc(C(F)(F)F)cc2)c1 (stereo not drawn) [Example 6.39, 6-[(2-hydroxy-1,2-dimethylpropyl)amino]-8-(3-methylphenyl)-7-[4-(trifluoromethyl)benzyl]-7H-purine-2-carboxylic acid]
The IC50 of the first is 4.3-fold lower: 530 nM for the first, 2260 nM for the second. The first is the more potent here.

`Cc1cccc(-c2nc3nc(C(=O)O)nc(N[C@@H](C)C(C)(C)C)c3n2Cc2ccc(C(F)(F)F)cc2)c1` [Example 6.41, 8-(3-methylphenyl)-7-[4-(trifluoromethyl)benzyl]-6-{[(1S)-1,2,2-trimethylpropyl]amino}-7H-purine-2-carboxylic acid] and `Cc1cccc(-c2nc3nc(C(=O)O)nc(N[C@H](C)C(C)(C)C)c3n2Cc2ccc(C(F)(F)F)cc2)c1` [Example 6.47, 8-(3-methylphenyl)-7-[4-(trifluoromethyl)benzyl]-6-{[(1R)-1,2,2-trimethylpropyl]amino}-7H-purine-2-carboxylic acid] are within 1.5-fold of each other in IC50: 638 nM for the first, 448 nM for the second.

First: Cc1cccc(-c2nc3nc(C(=O)O)nc(N[C@H](C)C4CCCCC4)c3n2Cc2ccc(C(F)(F)F)cc2)c1 [Example 6.42, 6-{[(1R)-1-cyclohexylethyl]amino}-8-(3-methylphenyl)-7-[4-(trifluoromethyl)benzyl]-7H-purine-2-carboxylic acid]
Second: Cc1cccc(-c2nc3nc(C(=O)O)nc(N[C@@H](C)C4CCCCC4)c3n2Cc2ccc(C(F)(F)F)cc2)c1 [Example 6.45, 6-{[(1S)-1-cyclohexylethyl]amino}-8-(3-methylphenyl)-7-[4-(trifluoromethyl)benzyl]-7H-purine-2-carboxylic acid]
The IC50 of the first is 2.9-fold lower: 564 nM for the first, 1610 nM for the second. The first is the more potent here.

First: Cc1cccc(-c2nc3nc(C(=O)O)nc(NC4CCOCC4)c3n2Cc2ccc(C(F)(F)F)cc2)c1 [Example 6.43, 8-(3-methylphenyl)-6-(tetrahydro-2H-pyran-4-ylamino)-7-[4-(trifluoromethyl)benzyl]-7H-purine-2-carboxylic acid]
Second: Cc1cccc(-c2nc3nc(C(=O)O)nc(N[C@H](C4CC4)C(F)(F)F)c3n2Cc2ccc(C(F)(F)F)cc2)c1 [Example 6.52, 6-{[(1R)-1-cyclopropyl-2,2,2-trifluoroethyl]amino}-8-(3-methylphenyl)-7-[4-(trifluoromethyl)benzyl]-7H-purine-2-carboxylic acid]
The IC50 of the first is 5.4-fold higher: 1710 nM for the first, 319 nM for the second.

Going from `Cc1cccc(-c2nc3nc(C(=O)O)nc(N[C@H](C)c4ccc(Cl)cc4)c3n2Cc2ccc(C(F)(F)F)cc2)c1` [Example 6.44, 6-{[(1R)-1-(4-chlorophenyl)ethyl]amino}-8-(3-methylphenyl)-7-[4-(trifluoromethyl)benzyl]-7H-purine-2-carboxylic acid] to `Cc1cccc(-c2nc3nc(C(=O)O)nc(N[C@@H](C)c4ccc(Cl)cc4)c3n2Cc2ccc(C(F)(F)F)cc2)c1` [Example 6.46, 6-{[(1S)-1-(4-chlorophenyl)ethyl]amino}-8-(3-methylphenyl)-7-[4-(trifluoromethyl)benzyl]-7H-purine-2-carboxylic acid], the IC50 rises from 372 nM to 4120 nM (11-fold). The first is the more potent here.

Compared with `Cc1cccc(-c2nc3nc(C(=O)O)nc(N[C@H](C)C(C)C)c3n2Cc2ccc(C(F)(F)F)cc2)c1` [Example 6.48, 6-{[(1R)-1,2-dimethylpropyl]amino}-8-(3-methylphenyl)-7-[4-(trifluoromethyl)benzyl]-7H-purine-2-carboxylic acid], `Cc1cccc(-c2nc3nc(C(=O)O)nc(N[C@@H](C)C(C)C)c3n2Cc2ccc(C(F)(F)F)cc2)c1` [Example 6.49, 6-{[(1S)-1,2-dimethylpropyl]amino}-8-(3-methylphenyl)-7-[4-(trifluoromethyl)benzyl]-7H-purine-2-carboxylic acid] is 4.3-fold higher in IC50: 145 nM for the first, 622 nM for the second.

Compared with `CCN(CC)c1nc(C(=O)O)nc2nc(-c3cccc(C)c3)n(Cc3ccc(C(F)(F)F)cc3)c12` [Example 6.51, 6-(diethylamino)-8-(3-methylphenyl)-7-[4-(trifluoromethyl)benzyl]-7H-purine-2-carboxylic acid], `CCN(C)c1nc(C(=O)O)nc2nc(-c3cccc(C)c3)n(Cc3ccc(C(F)(F)F)cc3)c12` [Example 6.59, 6-[ethyl(methyl)amino]-8-(3-methylphenyl)-7-[4-(trifluoromethyl)benzyl]-7H-purine-2-carboxylic acid] is 4.6-fold lower in IC50: 4600 nM for the first, 1000 nM for the second.

Compared with `Cc1cccc(-c2nc3nc(C(=O)O)nc(N[C@@H](C4CC4)C(F)(F)F)c3n2Cc2ccc(C(F)(F)F)cc2)c1` [Example 6.53, 6-{[(1S)-1-cyclopropyl-2,2,2-trifluoroethyl]amino}-8-(3-methylphenyl)-7-[4-(trifluoromethyl)benzyl]-7H-purine-2-carboxylic acid], `CCC(C)CNc1nc(C(=O)O)nc2nc(-c3cccc(C)c3)n(Cc3ccc(C(F)(F)F)cc3)c12` (stereo not drawn) [Example 6.63, 6-[(2-methylbutyl)amino]-8-(3-methylphenyl)-7-[4-(trifluoromethyl)benzyl]-7H-purine-2-carboxylic acid] is 1.7-fold higher in IC50: 419 nM for the first, 719 nM for the second. The first is the more potent here.

First: CC[C@H](Nc1nc(C(=O)O)nc2nc(-c3cc(C(C)C)ccn3)n(Cc3ccc(C(F)(F)F)cc3)c12)C1CCC1 [Example 6.54, 6-{[(1S)-1-cyclobutylpropyl]amino}-8-[4-(1-methylethyl)pyridin-2-yl]-7-[4-(trifluoromethyl)benzyl]-7H-purine-2-carboxylic acid]
Second: CC[C@@H](Nc1nc(C(=O)O)nc2nc(-c3cc(C(C)C)ccn3)n(Cc3ccc(C(F)(F)F)cc3)c12)C1CCC1 [Example 6.55, 6-{[(1R)-1-cyclobutylpropyl]amino}-8-[4-(1-methylethyl)pyridin-2-yl]-7-[4-(trifluoromethyl)benzyl]-7H-purine-2-carboxylic acid]
The IC50 of the first is 22-fold higher: 203 nM for the first, 9.27 nM for the second.

Compared with `COc1ccc(C)cc1-c1nc2nc(C(=O)O)nc(N[C@H](C)C3CC3(C)C)c2n1Cc1ccc(C(F)(F)F)cc1` (stereo partly drawn) [Example 6.56, 6-{[(1R)-1-(2,2-dimethylcyclopropyl)ethyl]amino}-8-(2-methoxy-5-methylphenyl)-7-[4-(trifluoromethyl)benzyl]-7H-purine-2-carboxylic acid], `CCCC(CCC)Nc1nc(C(=O)O)nc2nc(-c3cccc(C)c3)n(Cc3ccc(C(F)(F)F)cc3)c12` [Example 6.64, 8-(3-methylphenyl)-6-[(1-propylbutyl)amino]-7-[4-(trifluoromethyl)benzyl]-7H-purine-2-carboxylic acid] is 1.5-fold lower in IC50: 1410 nM for the first, 920 nM for the second.

First: CC(C)c1ccnc(-c2nc3nc(C(=O)O)nc(N[C@@H](c4ccccc4)C4CCC4)c3n2Cc2ccc(C(F)(F)F)cc2)c1 [Example 6.57, 6-{[(R)-cyclobutyl(phenyl)methyl]amino}-8-[4-(1-methylethyl)pyridin-2-yl]-7-[4-(trifluoromethyl)benzyl]-7H-purine-2-carboxylic acid]
Second: CC(C)c1ccnc(-c2nc3nc(C(=O)O)nc(N[C@H](c4ccccc4)C4CCC4)c3n2Cc2ccc(C(F)(F)F)cc2)c1 [Example 6.58, 6-{[(S)-cyclobutyl(phenyl)methyl]amino}-8-[4-(1-methylethyl)pyridin-2-yl]-7-[4-(trifluoromethyl)benzyl]-7H-purine-2-carboxylic acid]
The IC50 of the first is 22-fold higher: 1060 nM for the first, 49.2 nM for the second.

Same assay, conditions: read-out: inh. at 1000 nM (FRET)

Compared with `CC[C@H](C)Nc1nc(C(=O)O)nc2nc(-c3cccc(C)c3)n(Cc3ccc(C(F)(F)F)cc3)c12` [Example 6.61, 8-(3-methylphenyl)-6-{[(1S)-1-methylpropyl]amino}-7-[4-(trifluoromethyl)benzyl]-7H-purine-2-carboxylic acid], `Cc1cccc(-c2nc3nc(C(=O)O)nc(NC(C)CC(C)C)c3n2Cc2ccc(C(F)(F)F)cc2)c1` (stereo not drawn) [Example 6.62, 6-[(1,3-dimethylbutyl)amino]-8-(3-methylphenyl)-7-[4-(trifluoromethyl)benzyl]-7H-purine-2-carboxylic acid] is lower in inhibition at 1 µM: 41% for the first, 34% for the second.

— EP2951180B1, “2,6,7,8 SUBSTITUTED PURINES AS HDM2 INHIBITORS” (Merck Sharp & Dohme Corp., priority 2013, dated 2014)
